Assay results taken from patent US20260274892A1, “MACROCYCLIC BROAD SPECTRUM ANTIBIOTICS” (RQx Pharmaceuticals, Inc., priority 2017, published 2026).

Test system: Escherichia coli ATCC 25922
Experiment: Minimum inhibitory concentration (MIC), CLSI broth micro-dilution, E. coli
Type: cell-based
Conditions: Escherichia coli, ATCC25922, 22 h, Table 6, cation adjusted Mueller Hinton Broth + 0.002% Tween-80, 35° C.
Method: In vitro antimicrobial activity of each compound was determined by measuring minimal inhibitor concentrations (MICs) using the broth micro-dilution technique as approved by the Clinical and Laboratory Standards Institute (CLSI) (Methods for Dilution Antimicrobial Susceptibility Tests for Bacteria that Grow Aerobically; Approved Standard-Eighth Edition. CLSI document M07-A8. Wayne, PA: Clinical and Laboratroy Standards; 2009). Antibacterial activity was measure against two strains of bacteria: a Methicillin Resistant Staphylococcus aureus strain USA 200, (S. aureus) and Escherichia coli ATCC 25922 (E. coli), a clinically relevant Gram-negative strain. Cells were inoculated onto plates of Trypyticase Soy Agar or Luria Agar respectively and grown at 35° C. for 20 hours. Inocula suspensions were prepared by scraping cells into 1 mL of testing media (cation adjusted Mueller Hinton Broth supplemented with 0.002% v/v Tween-80) and diluting to a final OD600nm of 0.01.
Test compounds were prepared in DMSO at a concentration of 10 mg/mL. In protocol 1, the compound stocks were diluted into testing media at a concentration of 64 µg/ml and serial 2-fold dilutions were made in the same media, in 96-well U bottom microtiter dishes, for a total of 10 compound concentrations. In protocol 2, the compound stocks were diluted into testing media at a concentration of 4 µg/mL and serial 2-fold dilutions were made in the same media, in 96-well U bottom microtiter dishes, for a total of 10 compound concentrations. In protocol 3, compound stocks were diluted into testing media at a concentration of 0.5 μg/mL, with serial 2-fold dilutions conducted as described above. In protocol 4, compound stocks were diluted into testing media at a concentration of […], with serial 2-fold dilutions conducted as described above. Inocula suspensions were added to the 2-fold serial dilutions of test compounds to a final density of GD OD600nm of 0.0005 and incubated at 35° C. for 22 hours.

Question: Which MIC does the source give for `Cc1nc(-c2ccc(OCCCCC(C)(C)C)cc2)nc(C)c1C(=O)N[C@@H](CCN)C(=O)N(C)[C@@H]1C(=O)N[C@@H](C)C(=O)N[C@H](C(=O)NCC#N)Cc2ccc(OCCN)c(c2)-c2cc1ccc2OCCN` (racemic) [Compound 357, rac-(8S,11S,14S)-3,18-bis(2-aminoethoxy)-N-(cyanomethyl)-11-methyl-14-[methyl-[rac-(2S)-4-amino-2-[[2-[4-(5,5-dimethylhexoxy)phenyl]-4,6-dimethyl-pyrimidine-5-carbonyl]amino]butanoyl]amino]-10,13-dioxo-9,12-diazatricyclo[13.3.1.12,6]icosa-1(18),2(20),3,5,15(19),16-hexaene-8-carboxamide] here?
Answer: Its MIC is 0.19 µM.

Question: With `Cc1nc(-c2ccc(C(C)(C)C)cc2)nc(C)c1C(=O)N[C@@H](CCN)C(=O)N(C)[C@@H]1C(=O)N[C@@H](C)C(=O)N[C@H](C(=O)NCC#N)Cc2ccc3c(c2)-c2cc1ccc2OCC(O)(CN)CO3` (stereo partly drawn) [Compound 440] as the compound, how does the MIC read?
Answer: The MIC was 1 µM.

Question: With `Cc1nc(-c2ccc(OCCC(C)(C)C)cc2)nc(N)c1C(=O)N[C@@H](CCN)C(=O)N(C)[C@@H]1C(=O)N[C@@H](C)C(=O)N[C@H](C(=O)NCC#N)Cc2ccc(OCCCN)c(c2)-c2cc1ccc2OCCCN` (racemic) [Compound 436, rac-(8S,11S,14S)-3,18-bis(3-aminopropoxy)-N-(cyanomethyl)-11-methyl-14-[methyl-[rac-(2S)-4-amino-2-[[4-amino-2-[4-(3,3-dimethylbutoxy)phenyl]-6-methyl-pyrimidine-5-carbonyl]amino]butanoyl]amino]-10,13-dioxo-9,12-diazatricyclo[13.3.1.12,6]icosa-1(18),2(20),3,5,15(19),16-hexaene-8-carboxamide] as the compound, how does the MIC read?
Answer: The MIC was 0.063 µM.

Same assay, conditions: Escherichia coli, ATCC25922, 22 h, Table 7, cation adjusted Mueller Hinton Broth + 0.002% Tween-80, 35° C.

Question: `Cc1nc(-c2ccc(C(C)(C)C)cc2)nc(C)c1C(=O)N[C@@H](CNS(N)(=O)=O)C(=O)N(C)[C@@H]1C(=O)N[C@@H](C)C(=O)N[C@H](C(=O)NCC#N)Cc2ccc(OC[C@@H](O)CN)c(c2)-c2cc1ccc2OC[C@@H](O)CN` (racemic) [Compound 581, rac-(8S,11S,14S)-N-(cyanomethyl)-11-methyl-14-[methyl-[rac-(2S)-2-[[2-(4-tert-butylphenyl)-4,6-dimethyl-pyrimidine-5-carbonyl]amino]-3-(sulfamoylamino)propanoyl]amino]-10,13-dioxo-3,18-bis[rac-(2S)-3-amino-2-hydroxy-propoxy]-9,12-diazatricyclo[13.3.1.12,6]icosa-1(18),2(20),3,5,15(19),16-hexaene-8-carboxamide] was tested. Which MIC did it give?
Answer: Its MIC is 0.25 µM.

Question: Which MIC does the source give for `Cc1nc(-c2ccc(C(C)(C)C)cc2)nc(C)c1C(=O)N[C@@H](CCN)C(=O)N(C)[C@@H]1C(=O)N[C@@H](C)C(=O)N[C@H](C(=O)NCC#N)Cc2ccc(O)c(c2)-c2cc1ccc2OCCNCCCN` (racemic) [Compound 602, rac-(8S,11S,14S)-18-[2-(3-aminopropylamino)ethoxy]-N-(cyanomethyl)-3-hydroxy-11-methyl-14-[methyl-[rac-(2S)-4-amino-2-[[2-(4-tert-butylphenyl)-4,6-dimethyl-pyrimidine-5-carbonyl]amino]butanoyl]amino]-10,13-dioxo-9,12-diazatricyclo[13.3.1.12,6]icosa-1(18),2(20),3,5,15(19),16-hexaene-8-carboxamide] here?
Answer: The MIC was 0.063 µM.

Question: Which MIC does the source give for `Cc1nc(-c2ccc(C(C)(C)C)cc2)nc(C)c1C(=O)N[C@@H](CCN)C(=O)N(C)[C@@H]1C(=O)N[C@@H](C)C(=O)N[C@H](C(=O)NCC#N)Cc2ccc(OCCN)c(c2)-c2cc1cc(OCCN)c2O` [Compound 583, (8S,11S,14S)-14-[[(2S)-4-amino-2-[[2-(4-tert-butylphenyl)-4,6-dimethyl-pyrimidine-5-carbonyl]amino]butanoyl]-methyl-amino]-3,17-bis(2-aminoethoxy)-N-(cyanomethyl)-18-hydroxy-11-methyl-10,13-dioxo-9,12-diazatricyclo[13.3.1.12,6]icosa-1(18),2(20),3,5,15(19),16-hexaene-8-carboxamide] here?
Answer: The MIC was 0.17 µM.

Question: For `Cc1nc(-c2ccc(C(C)(C)C)cc2)nc(C)c1C(=O)N[C@@H](CCN)C(=O)N(C)[C@@H]1C(=O)N[C@@H](C)C(=O)N[C@H](C(=O)NCC#N)Cc2ccc(OC3CNC3)c(c2)-c2cc1ccc2O` (racemic) [Compound 605, rac-(8S,11S,14S)-3-(azetidin-3-yloxy)-N-(cyanomethyl)-18-hydroxy-11-methyl-14-[methyl-[rac-(2S)-4-amino-2-[[2-(4-tert-butylphenyl)-4,6-dimethyl-pyrimidine-5-carbonyl]amino]butanoyl]amino]-10,13-dioxo-9,12-diazatricyclo[13.3.1.12,6]icosa-1(18),2(20),3,5,15(19),16-hexaene-8-carboxamide], which MIC is on record?
Answer: The MIC was 0.75 µM.

Question: How did the MIC turn out when `Cc1nc(-c2ccc(C(C)(C)C)cc2)nc(C)c1C(=O)N[C@@H](CCN)C(=O)N(C)[C@@H]1C(=O)N[C@@H](C)C(=O)N[C@H](C(=O)NCC#N)Cc2ccc(OCC(CN)CN)c(c2)-c2cc1ccc2O` (racemic) [Compound 610, rac-(8S,11S,14S)-3-[3-amino-2-(aminomethyl)propoxy]-N-(cyanomethyl)-18-hydroxy-11-methyl-14-[methyl-[rac-(2S)-4-amino-2-[[2-(4-tert-butylphenyl)-4,6-dimethyl-pyrimidine-5-carbonyl]amino]butanoyl]amino]-10,13-dioxo-9,12-diazatricyclo[13.3.1.12,6]icosa-1(18),2(20),3,5,15(19),16-hexaene-8-carboxamide] was run?
Answer: Its MIC is 0.19 µM.

Question: How did the MIC turn out when `Cc1nc(-c2ccc(C(C)(C)C)cc2)nc(C)c1C(=O)N[C@@H](CCN)C(=O)N(C)[C@@H]1C(=O)N[C@@H](C)C(=O)N[C@H](C(=O)NCC#N)Cc2ccc(OCCN)c(c2)-c2cc1cc(NCCN)c2O` (racemic) [Compound 589, rac-(8S,11S,14S)-3-(2-aminoethoxy)-17-(2-aminoethylamino)-N-(cyanomethyl)-18-hydroxy-11-methyl-14-[methyl-[rac-(2S)-4-amino-2-[[2-(4-tert-butylphenyl)-4,6-dimethyl-pyrimidine-5-carbonyl]amino]butanoyl]amino]-10,13-dioxo-9,12-diazatricyclo[13.3.1.12,6]icosa-1(18),2(20),3,5,15(19),16-hexaene-8-carboxamide] was run?
Answer: Its MIC is 1 µM.

Question: Which MIC does the source give for `COc1c(OC[C@H](O)CN)cc2cc1-c1cc(cc(OC[C@H](O)CN)c1OC)[C@H](N(C)C(=O)[C@H](CNS(N)(=O)=O)NC(=O)c1c(C)nc(-c3ccc(C(C)(C)C)cc3)nc1C)C(=O)N[C@@H](C)C(=O)N[C@H](C(=O)NCC#N)C2` (racemic) [Compound 593, rac-(8S,11S,14S)-N-(cyanomethyl)-3,18-dimethoxy-11-methyl-14-[methyl-[rac-(2S)-2-[[2-(4-tert-butylphenyl)-4,6-dimethyl-pyrimidine-5-carbonyl]amino]-3-(sulfamoylamino)propanoyl]amino]-10,13-dioxo-4,17-bis[rac-(2R)-3-amino-2-hydroxy-propoxy]-9,12-diazatricyclo[13.3.1.12,6]icosa-1(18),2(20),3,5,15(19),16-hexaene-8-carboxamide] here?
Answer: Its MIC is 1.5 µM.

Same assay, conditions: Escherichia coli, ATCC25922, Table 6, cation adjusted Mueller Hinton Broth + 0.002% Tween-80, 35° C., 22 hours

Question: Which MIC does the source give for `CCC1(Oc2ccc(-c3nc(C)c(C(=O)N[C@@H](CCN)C(=O)N(C)[C@@H]4C(=O)N[C@@H](C)C(=O)N[C@H](C(=O)NCC#N)Cc5ccc(OCCN)c(c5)-c5cc4ccc5OCCN)c(C)n3)cc2)CC1` (racemic) [Compound 345, rac-(8S,11S,14S)-3,18-bis(2-aminoethoxy)-N-(cyanomethyl)-11-methyl-14-[methyl-[rac-(2S)-4-amino-2-[[2-[4-(1-ethylcyclopropoxy)phenyl]-4,6-dimethyl-pyrimidine-5-carbonyl]amino]butanoyl]amino]-10,13-dioxo-9,12-diazatricyclo[13.3.1.12,6]icosa-1(18),2(20),3,5,15(19),16-hexaene-8-carboxamide] here?
Answer: Its MIC is 0.25 µM.

Question: How did the MIC turn out when `Cc1nc(-c2ccc(OCC(C)(C)C)cc2)ncc1C(=O)N[C@@H](CCN)C(=O)N(C)[C@@H]1C(=O)N[C@@H](C)C(=O)N[C@H](C(=O)NCC#N)Cc2ccc(OCCN)c(c2)-c2cc1ccc2OCCN` (racemic) [Compound 252, rac-(8S,11S,14S)-3,18-bis(2-aminoethoxy)-N-(cyanomethyl)-11-methyl-14-[methyl-[rac-(2S)-4-amino-2-[[2-[4-(2,2-dimethylpropoxy)phenyl]-4-methyl-pyrimidine-5-carbonyl]amino]butanoyl]amino]-10,13-dioxo-9,12-diazatricyclo[13.3.1.12,6]icosa-1(18),2(20),3,5,15(19),16-hexaene-8-carboxamide] was run?
Answer: Its MIC is 0.097 µM.
